# Reference: PubChem BioAssay (NCI)
#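 1) Cells in 96-well plates. 2) Compound, 48 h, 5 concentrations. 3) Linear interpolation between surrounding doses. 4) Unreached endpoint = highest concentration. Here, GI50 denotes the concentration required for 50% inhibition of growth. At the TGI there is no net growth.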
# Tests used:
# Assay in all cases: NCI-60 cell line screen, 48 h
# NCI-H23 lung = test system: NCI-H23 lung
# SW-620 colon = test system: SW-620 colon
# MDA-MB-435 = test system: MDA-MB-435
# HCC-2998 colon = test system: HCC-2998 colon
# HOP-92 NSCLC = test system: HOP-92 NSCLC
# PC-3 prostate = test system: PC-3 prostate
structure (smiles),measurement,setting,value
COc1ccc(-c2ccc(-c3ccc(C(=N)N)nc3)s2)cc1,GI50,NCI-H23 lung,1840 nM
same,TGI,NCI-H23 lung,3.46 µM
same,GI50,SW-620 colon,430 nM
same,TGI,SW-620 colon,1700 nM
same,GI50,MDA-MB-435,1730 nM
same,TGI,MDA-MB-435,3.11 µM
same,GI50,HCC-2998 colon,1820 nM
same,TGI,HCC-2998 colon,3.41 µM
same,GI50,HOP-92 NSCLC,1500 nM
same,TGI,HOP-92 NSCLC,3.07 µM
same,GI50,PC-3 prostate,1680 nM
same,TGI,PC-3 prostate,3.31 µM
